One data set has as its target T1, SARS-Cov-2 3CLpro (Severe acute respiratory syndrome coronavirus 2, UniProt P0DTD1).
T1 construct: SARS-Cov-2 3CLpro and HRV3C Duplex Assay
The data set is described as follows: SARS-Cov-2 3CLpro and HRV3C duplex assay (SAMDI-MS): 3CLpro. The conditions noted are these: 3CLpro, duplex assay, 30 mins preincubation; class symbols; read-out: SARS-Cov-2 IC50. In kind it is biochemical.

A further data set deals with T2, HRV3C (Human rhinovirus 14, UniProt P03303).
T2 construct: SARS-Cov-2 3CLpro and HRV3C Duplex Assay
T2 sequence (P03303 1538-1719): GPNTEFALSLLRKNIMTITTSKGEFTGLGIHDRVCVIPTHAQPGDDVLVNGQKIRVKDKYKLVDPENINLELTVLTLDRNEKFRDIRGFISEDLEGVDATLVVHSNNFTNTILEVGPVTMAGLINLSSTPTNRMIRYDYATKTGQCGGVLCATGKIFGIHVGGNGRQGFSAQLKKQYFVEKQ
The data set can be described thus: biochemical. The conditions noted are these: read-out: HRV IC50.

For data set [1], the system named is SARS-CoV-2-GHB-03021/2020. The data set can be described thus: microbe, parasite or virus in culture. The conditions noted are these: Severe acute respiratory syndrome coronavirus 2, Vero C1008, 96 h; read-out: VeroE6 + CP (EC50). The format is cell-based.
For data set [2], the system named is human beta-coronavirus OC43. The data set can be described thus: OC43 coronavirus assay in HeLa cells (cytopathic effect, cell-titer-glo). In kind it is cell-based. (In general: Damage to the host cells serves as the signal in cytopathic effect assays.)
A short description of data set [3]: Cytotoxicity plates without OC43 virus in HeLa cells. The format is cell-based. The conditions noted are these: human, HeLa cells (uninfected). The method in brief:
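HeLa cells pretreated 4 h with serially diluted compounds, then infected with OC43 at a dose giving 80-90% viability loss and incubated 6 days at 33 °C. Viability by CellTiter-Glo luminescence; EC50 from four-parameter fit of CPE inhibition. Uninfected parallel plates gave cytotoxicity.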

The target of another data set is T3, human cathepsin L (Homo sapiens, UniProt P07711).
T3 construct: purchased R&D Systems
T3 sequence (P07711 114-333): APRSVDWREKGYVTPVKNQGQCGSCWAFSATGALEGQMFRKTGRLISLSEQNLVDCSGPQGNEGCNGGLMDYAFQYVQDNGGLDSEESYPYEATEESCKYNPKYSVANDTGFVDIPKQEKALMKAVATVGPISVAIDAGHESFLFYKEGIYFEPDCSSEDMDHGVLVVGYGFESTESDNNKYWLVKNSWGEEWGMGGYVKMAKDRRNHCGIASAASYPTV
The data set is described as follows: Cathepsin L assay (Z-FR-AMC fluorescence). The conditions noted are these: 10 pM human cathepsin L, 30 mins preincubation; class symbols. The format is biochemical. The method in brief: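 Human cathepsin L at 10 pM was preincubated 30 min with compound, then reaction started with Z-FR-AMC (2 μM final). Fluorescence (355/460 nm) read every 2 min for 30 min; IC50 from four-parameter curve fit.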

In the next data set the test system is SARS-CoV-2. The conditions noted are these: cited from earlier work.
The target of the next data set is 3CLpro (Severe acute respiratory syndrome coronavirus 2, UniProt P0DTD1). The conditions noted are these: cited from earlier work.
Setting [4] is: HRV3C, duplex assay, 30 mins preincubation, class symbols.
Where [5] appears, read: Betacoronavirus 1, 144 h, OC43 in HeLa cells, 6 days at 33° C., class symbols, read-out: EC50.

Like-named read-outs stand apart in the source and are kept apart here. A value given as a limit tells only on which side of the number the result lay.

The IC50 is the concentration that gives 50% inhibition. As a reminder, the EC50 is the concentration at which the effect is half-maximal. A word on the CC50: it is the concentration giving 50% cytotoxicity. Higher therefore signals lower toxicity to the cells.

For `O=C(NC1CC1)C(=O)[C@H](C[C@@H]1CCNC1=O)NC(=O)[C@@H]1CC2(CCN1C(=O)c1ncc(-c3ccccc3)s1)CC2` [Example 1, (S)—N—((S)-4-(cyclopropylamino)-3,4-dioxo-1-((S)-2-oxopyrrolidin-3-yl)butan-2-yl)-6-(5-phenylthiazole-2-carbonyl)-6-azaspiro[2.5]octane-5-carboxamide], the IC50 was 20 to 200 nM on SARS-Cov-2 3CLpro, 200 to 2000 nM on HRV3C (setting [4]) and not below 10000 nM against human cathepsin L. For the same compound, the figures for the EC50 in data set [1] and in data set [2] (setting [5]) were less than 1000 nM and 100 to 1000 nM, respectively. Further, the cytotoxic concentration (CC50) at 6 days in data set [3] (class symbols) fell in the range of 10000 to 100000 nM.

On to `Cn1c(C(=O)N2CCC3(CC3)C[C@H]2C(=O)N[C@@H](C[C@@H]2CCNC2=O)C(=O)CO)cc2ccccc21` [Example 2, (S)—N—((S)-4-hydroxy-3-oxo-1-((S)-2-oxopyrrolidin-3-yl)butan-2-yl)-6-(1-methyl-1H-indole-2-carbonyl)-6-azaspiro[2.5]octane-5-carboxamide], for which the concentration for half-maximal inhibition (IC50) at SARS-Cov-2 3CLpro was 20 to 200 nM; at HRV3C, more than 10000 nM; against human cathepsin L, not below 10000 nM. Moreover, the EC50 in data set [1] and in data set [2] (setting [5]) was 1000 to 10000 nM in each case. In data set [3] (class symbols), this compound gave a CC50 at 6 days not below 100000 nM.

Regarding `O=C(NC1CC1)C(=O)[C@H](C[C@@H]1CCNC1=O)NC(=O)[C@@H]1CC2(CCN1C(=O)c1nc(-c3ccccc3)cs1)CC2` [Example 3], the half-inhibitory concentration (IC50) on SARS-Cov-2 3CLpro is 20 to 200 nM; on HRV3C (setting [4]), 2000 to 20000 nM; against human cathepsin L, not below 10000 nM. The values for the 50% effective concentration (EC50) in data set [1] and in data set [2] (setting [5]) were 1000 to 10000 nM and 100 to 1000 nM, respectively. In data set [3] (class symbols), this compound came in with a 50% cytotoxic concentration (CC50) at 6 days of 10000 to 100000 nM.

As for `Cn1c(C(=O)N2CCC3(CC3)C[C@H]2C(=O)N[C@@H](C[C@@H]2CCNC2=O)C(=O)C(=O)NC2CC2)nc2ccccc21` [Example 4], the values for the IC50 at SARS-Cov-2 3CLpro, on HRV3C (setting [4]) and at human cathepsin L were 20 to 200 nM, 2000 to 20000 nM and not below 10000 nM, respectively. Moreover, the EC50 in data set [1] and in data set [2] (setting [5]) was 1000 to 10000 nM in each case. Further, the half-maximal cytotoxic concentration (CC50) at 6 days in data set [3] (class symbols) was not below 100000 nM.

For `Cn1c(C(=O)N2CCC3(CC3)C[C@H]2C(=O)N[C@H](C#N)C[C@@H]2CCNC2=O)cc2ccccc21` [Example 5, (S)—N—((S)-1-cyano-2-((S)-2-oxopyrrolidin-3-yl)ethyl)-6-(1-methyl-1H-indole-2-carbonyl)-6-azaspiro[2.5]octane-5-carboxamide], the IC50 was 200 to 2000 nM on SARS-Cov-2 3CLpro, more than 10000 nM on HRV3C and not below 10000 nM on human cathepsin L. The EC50 in data set [1] and in data set [2] (setting [5]) was 1000 to 10000 nM throughout. In data set [3] (class symbols), this compound registered a 50% cytotoxic concentration (CC50) at 6 days not below 100000 nM.

On to `O=C(NC1CC1)C(=O)[C@H](C[C@@H]1CCNC1=O)NC(=O)[C@@H]1CC2(CCN1C(=O)C1Cc3ccccc3C1)CC2` [Example 6, (S)—N—((S)-4-(cyclopropylamino)-3,4-dioxo-1-((S)-2-oxopyrrolidin-3-yl)butan-2-yl)-6-(2,3-dihydro-1H-indene-2-carbonyl)-6-azaspiro[2.5]octane-5-carboxamide], for which the 50% inhibitory concentration (IC50) at SARS-Cov-2 3CLpro is 20 to 200 nM; at HRV3C (setting [4]), 200 to 2000 nM; at human cathepsin L it was not below 10000 nM. The results for the EC50 in data set [1] and in data set [2] (setting [5]) were less than 1000 nM and 100 to 1000 nM, respectively. In data set [3] (class symbols), this compound showed a CC50 at 6 days not below 100000 nM.

Turning to `Cn1nc2ccccc2c1C(=O)N1CCC2(CC2)C[C@H]1C(=O)N[C@@H](C[C@@H]1CCNC1=O)C(=O)C(=O)NC1CC1` [Example 7], the half-maximal inhibitory concentration (IC50) is less than 20 nM at SARS-Cov-2 3CLpro, 200 to 2000 nM on HRV3C (setting [4]) and 1000 to 10000 nM against human cathepsin L. Also, the half-maximal effective concentration (EC50) is 1000 to 10000 nM in data set [1] and 100 to 1000 nM in data set [2] (setting [5]). The CC50 at 6 days in data set [3] (class symbols) is not below 100000 nM.

Consider `O=C(NC1CC1)C(=O)[C@H](C[C@@H]1CCNC1=O)NC(=O)[C@@H]1CC2(CCN1C(=O)c1cc3ccccc3n1C1CC1)CC2` [Example 8], for which the IC50 on SARS-Cov-2 3CLpro was less than 20 nM; on HRV3C (setting [4]), 2000 to 20000 nM; against human cathepsin L, not below 10000 nM. For the same compound, the EC50 in data set [1] was less than 1000 nM; in data set [2] (setting [5]), 100 to 1000 nM. In addition, the CC50 at 6 days in data set [3] (class symbols) is not below 100000 nM.

On to `O=C(NC1CC1)C(=O)[C@H](C[C@@H]1CCNC1=O)NC(=O)[C@@H]1CC2(CCN1C(=O)c1cc3ccccn3n1)CC2` [Example 9], for which the results for the half-inhibitory concentration (IC50) on SARS-Cov-2 3CLpro, on HRV3C (setting [4]) and against human cathepsin L were 200 to 2000 nM, 2000 to 20000 nM and not below 10000 nM, respectively. For the same compound, the EC50 in data set [1] and in data set [2] (setting [5]) was 1000 to 10000 nM throughout. The compound also registered a CC50 at 6 days in data set [3] (class symbols) not below 100000 nM.

With `Cn1nc(C(=O)N2CCC3(CC3)C[C@H]2C(=O)N[C@@H](C[C@@H]2CCNC2=O)C(=O)C(=O)NC2CC2)c2ccccc21` [Example 10], the IC50 on SARS-Cov-2 3CLpro is 20 to 200 nM; on HRV3C (setting [4]), 200 to 2000 nM; at human cathepsin L, not below 10000 nM. For the same compound, the concentration for a half-maximal effect (EC50) in data set [1] and in data set [2] (setting [5]) was 1000 to 10000 nM each time. This compound also showed a 50% cytotoxic concentration (CC50) at 6 days in data set [3] (class symbols) not below 100000 nM.

With `Cn1cc(C(=O)N2CCC3(CC3)C[C@H]2C(=O)N[C@@H](C[C@@H]2CCNC2=O)C(=O)C(=O)NC2CC2)c2ccccc21` [Example 11], the IC50 was 20 to 200 nM on SARS-Cov-2 3CLpro, less than 20 nM at HRV3C (setting [4]) and 1000 to 10000 nM at human cathepsin L. For the same compound, the EC50 in data set [1] and in data set [2] (setting [5]) was 1000 to 10000 nM in each case. In data set [3] (class symbols), this compound came in with a 50% cytotoxic concentration (CC50) at 6 days not below 100000 nM.

Take `O=C(NC1CC1)C(=O)C(C[C@@H]1CCNC1=O)NC(=O)[C@@H]1CC2(CCN1C(=O)c1cc3cccc(Cl)c3s1)CC2` (stereo partly drawn) [Example 12, (5S)-6-(7-chlorobenzo[b]thiophene-2-carbonyl)-N-(4-(cyclopropylamino)-3,4-dioxo-1-((S)-2-oxopyrrolidin-3-yl)butan-2-yl)-6-azaspiro[2.5]octane-5-carboxamide]: the 50% inhibitory concentration (IC50) on SARS-Cov-2 3CLpro is less than 20 nM; on HRV3C (setting [4]) it was 20 to 200 nM; against human cathepsin L, 1000 to 10000 nM. In addition, the concentration for a half-maximal effect (EC50) in data set [1] was less than 1000 nM; in data set [2] (setting [5]) it was 100 to 1000 nM. Also, in data set [3] (class symbols), the CC50 at 6 days lay within 10000 to 100000 nM.

Regarding `CN1CCN(c2ccc(C(=O)N3CCC4(CC4)C[C@H]3C(=O)N[C@@H](C[C@@H]3CCNC3=O)C(=O)C(=O)NC3CC3)cc2)CC1` [Example 13, (3S)—N-cyclopropyl-3-{[(5S)-6-[4-(4-methylpiperazin-1-yl)benzoyl]-6-azaspiro[2.5]octan-5-yl]formamido}-2-oxo-4-[(3S)-2-oxopyrrolidin-3-yl]butanamide], the results for the concentration for half-maximal inhibition (IC50) on SARS-Cov-2 3CLpro, at HRV3C and against human cathepsin L were 200 to 2000 nM, more than 10000 nM and 1000 to 10000 nM, respectively. In addition, the EC50 in data set [1] is more than 50000 nM; in data set [2] (Betacoronavirus 1, OC43, HeLa) it was more than 10000 nM. The CC50 at 6 days in data set [3] (class symbols) was not below 100000 nM.

Turning to `N#C[C@H](C[C@@H]1CCNC1=O)NC(=O)[C@@H]1CC2(CCN1C(=O)c1ncc(-c3ccccc3)s1)CC2` [Example 52, (S)—N—((S)-1-cyano-2-((S)-2-oxopyrrolidin-3-yl)ethyl)-6-(5-phenylthiazole-2-carbonyl)-6-azaspiro[2.5]octane-5-carboxamide], the IC50 was 200 to 2000 nM at SARS-Cov-2 3CLpro; more than 10000 nM at HRV3C (HRV3C, duplex assay, numeric bound: >10 indicates an IC50>10000 nM); not below 10000 nM on human cathepsin L. Also, the EC50 in data set [1] was 10000 to 100000 nM; in data set [2] (Betacoronavirus 1, OC43, HeLa) it was more than 10000 nM. The compound further had a cytotoxic concentration (CC50) at 6 days in data set [3] (numeric bound, unit inferred) of more than 100000 nM.

For `CN1CCN(C(=O)N[C@@H](Cc2ccccc2)C(=O)N[C@H](/C=C/S(=O)(=O)c2ccccc2)CCc2ccccc2)CC1` [Example K117777], the “antiviral effect when TMPRSS2 was expressed” value in the data set on SARS-CoV-2 (A549-ACE2 expressing TMPRSS2 (Steuten et al.)) is listed as “abolished”. For the same compound, the “inhibition of SARS-CoV-2” value in the data set with SARS-CoV-2 (VeroE6, A549-ACE2 and/or HeLa-ACE2 (Mellott et al.)) was “potent inhibition”. Further, the “inhibitory effect on the 3CLpro” value at 3CLpro is on record as “lacks an inhibitory effect”.

Source of the values: patent US12065428B2, “Anti-viral compounds” (Aligos Therapeutics, Inc., priority 2021, dated 2024).
